Assay results taken from ChEMBL document CHEMBL1201862, “PubChem BioAssay data set” (2004).
Active and inactive are the calls of the source.

How the values were obtained:
[1] = target: T1, Orexin/Hypocretin receptor type 1 (Homo sapiens, UniProt O43613); test: (§1) Fluorescence-based cell-based high throughput dose response assay for antagonists of the orexin 1 receptor (OX1R; HCRTR1). [Related pubchem assays (depositor defined):AID434989, AID435008, AID463079, AID485270, AID492963, AID492964, AID492965, AID493232, AID504717, AID504718]; assay type: functional
Orexin receptor type 2 [2] = target: T2, Orexin receptor type 2 (Homo sapiens, UniProt O43614); test: Counterscreen assay for antagonists of the orexin 1 receptor (OX1R; HCRTR1): Homogeneous Time Resolved Fluorescence (HTRF)-based cell-based dose response assay for antagonists of the orexin 2 receptor (OX2R; HCRTR2), run by assay provider.; assay type: functional
Cytochrome P450 2C9 = Cytochrome P450 2C9 (Homo sapiens, UniProt P11712)
CHO-K1 = test: (§2) Counterscreen for antagonists of the orexin 1 receptor (OX1R; HCRTR1): Homogeneous time resolved fluorescence (HTRF)-based cell-based dose response assay to identify antagonists of the parental CHO-K1 cell line. [Related pubchem assays (depositor defined):AID434989, AID435008, AID463079, AID485270, AID492963, AID492964, AID492965, AID493232, AID504699, AID504701]; assay type: functional; conditions: Cricetulus griseus
[3] = target: T1, Orexin/Hypocretin receptor type 1; test: as §1, with “Homogeneous Time Resolved Fluorescence (HTRF)-based” for “Fluorescence-based”; assay type: functional
Orexin receptor type 2 [4] = target: T2, Orexin receptor type 2; test: Counterscreen assay for antagonists of the orexin 1 receptor (OX1R; HCRTR1): Fluorescence-based cell-based dose response assay for antagonists of the orexin 2 receptor (OX2R; HCRTR2), run by assay provider.; assay type: functional
[5] = as §2, with “Fluorescence-based” for “Homogeneous time resolved fluorescence (HTRF)-based”, “cell-based high throughput” for “cell-based”, “CHO” for “CHO-K1”; assay type: functional
Aurora kinase A = Aurora kinase A (Homo sapiens, UniProt O14965); assay type: functional;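 note: value from the Navigating the Kinome kinase panel profiling, panel entry STK6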
[6] = target: Vascular endothelial growth factor receptor 2 (Homo sapiens, UniProt P35968); assay type: functional
Aurora kinase B = Aurora kinase B (Homo sapiens, UniProt Q96GD4); assay type: functional
[7] = target: High affinity nerve growth factor receptor (Homo sapiens, UniProt P04629); assay type: functional;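 note: NTRK1 tested as one member of a kinome-wide profiling panel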
[8] = Fluorescence-based cell-based high throughput dose response assay for inhibitors of the interaction of nucleotide-binding oligomerization domain containing 2 (NOD2) and the receptor-interacting serine-threonine kinase 2 (RIPK2).; assay type: functional; conditions: Homo sapiens
Beta-galactosidase = Beta-galactosidase (Escherichia coli, UniProt Q8VNN2); test: detection-enzyme interference by beta-gal modulators – biochemical, E. coli enzyme, set 3, artefact control for CCR6 antagonist project, dose response (AID 504712); assay type: functional
[9] = target: Heat shock protein HSP 90-alpha (Homo sapiens, UniProt P07900); assay type: functional, organism-based
[10] = reduction of Shn3 3'UTR-driven luciferase in osteoblasts – cell-based, Clone20 osteoblasts, firefly luciferase, cherry-picked, dose response (AID 624132); assay type: functional;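 note: firefly luciferase luminescence from reporter carrying the Shn3 3'UTR in osteoblasts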
Beta Lactamase [11] = target: T3, Beta Lactamase (Pseudomonas aeruginosa, UniProt Q932Y6); test: BLA reporter interference, concentration series – BLA reporter cells, FRET fluorescence, artefact control for TLR9-MyD88 binding inhibitor project, dose response (AID 588341); assay type: cell-based;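 note: cell based assay in CHO-K1 cells stably expressing beta-lactamase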
CHO = CHO cell viability loss, potency – luminescence, cytotoxicity control for TLR9-MyD88 binding inhibitor project, dose response (AID 588339); assay type: functional, cell-based, hamster; conditions: Cricetulus griseus;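 note: CHO cells stably coexpressing TLR9 and MyD88 fusions from primary screen; compound exposure lasted 48 hours before viability readout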
Beta Lactamase [12] = target: T3, Beta Lactamase; test: BLA reporter interference, concentration series – BLA reporter cells, FRET fluorescence, artefact control for NOD2-RIPK2 interaction inhibitor project, dose response (AID 651552); assay type: functional, cell-based
[13] = loss of viability in HepG2 cells – cell-based, CellTiter-Glo, cherry-picked, cytotoxicity control for Shn3 inhibitor project, dose response (AID 624134); assay type: functional
[14] = non-specific 3'UTR reporter inhibition in Clone20-Shn3RL – cell-based, Renilla luciferase, cherry-picked, counter-screen for Shn3 inhibitor project, dose response (AID 624133); assay type: functional
[15] = target: T4, Polyadenylate-binding protein 1 (Homo sapiens, UniProt P11940); test: MLLE binding blockers, Cy5 peptide tracer – biochemical, fluorescence polarization, Cy5-PAM2 peptide, secondary, miRNA deadenylation inhibitor project, dose response (AID 602260); assay type: functional; conditions: read-out: IC50_Mean
[16] = target: T4, Polyadenylate-binding protein 1; test: MLLE domain peptide-binding blockers, IC50 – biochemical, fluorescence polarization, FITC-PAM2 peptide, dose response (AID 602259); assay type: functional; conditions: read-out: IC50_Mean

T4 sequence (P11940 whole entry, the tested form may be a part): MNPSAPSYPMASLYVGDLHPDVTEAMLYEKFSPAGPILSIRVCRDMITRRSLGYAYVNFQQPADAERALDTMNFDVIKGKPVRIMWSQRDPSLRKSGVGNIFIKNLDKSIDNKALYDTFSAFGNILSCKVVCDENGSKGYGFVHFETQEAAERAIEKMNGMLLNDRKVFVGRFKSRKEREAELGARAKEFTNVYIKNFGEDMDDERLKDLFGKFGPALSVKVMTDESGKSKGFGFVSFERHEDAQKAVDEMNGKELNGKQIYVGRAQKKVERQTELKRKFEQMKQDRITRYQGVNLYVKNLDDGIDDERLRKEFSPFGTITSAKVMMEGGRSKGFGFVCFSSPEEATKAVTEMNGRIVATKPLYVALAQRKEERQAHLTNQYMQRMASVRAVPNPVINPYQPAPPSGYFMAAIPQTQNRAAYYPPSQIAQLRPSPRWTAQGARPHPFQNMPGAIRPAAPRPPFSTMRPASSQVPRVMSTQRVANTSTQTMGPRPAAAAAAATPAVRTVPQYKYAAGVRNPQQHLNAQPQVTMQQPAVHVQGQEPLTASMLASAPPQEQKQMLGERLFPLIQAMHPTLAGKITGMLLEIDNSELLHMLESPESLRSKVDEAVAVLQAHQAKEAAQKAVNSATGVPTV
T2 sequence (O43614 whole entry): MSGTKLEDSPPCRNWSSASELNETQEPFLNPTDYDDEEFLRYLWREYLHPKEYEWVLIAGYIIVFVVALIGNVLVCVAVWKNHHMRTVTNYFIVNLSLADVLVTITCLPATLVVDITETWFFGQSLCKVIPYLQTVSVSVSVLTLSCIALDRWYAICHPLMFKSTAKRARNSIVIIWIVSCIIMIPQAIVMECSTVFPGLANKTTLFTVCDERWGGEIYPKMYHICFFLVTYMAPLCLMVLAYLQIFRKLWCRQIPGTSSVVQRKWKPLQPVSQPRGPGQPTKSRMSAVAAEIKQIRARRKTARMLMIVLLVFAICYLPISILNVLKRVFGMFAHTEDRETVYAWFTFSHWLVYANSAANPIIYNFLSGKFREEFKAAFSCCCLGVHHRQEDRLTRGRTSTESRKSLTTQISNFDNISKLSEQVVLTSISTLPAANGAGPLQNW
T1 sequence (O43613 whole entry): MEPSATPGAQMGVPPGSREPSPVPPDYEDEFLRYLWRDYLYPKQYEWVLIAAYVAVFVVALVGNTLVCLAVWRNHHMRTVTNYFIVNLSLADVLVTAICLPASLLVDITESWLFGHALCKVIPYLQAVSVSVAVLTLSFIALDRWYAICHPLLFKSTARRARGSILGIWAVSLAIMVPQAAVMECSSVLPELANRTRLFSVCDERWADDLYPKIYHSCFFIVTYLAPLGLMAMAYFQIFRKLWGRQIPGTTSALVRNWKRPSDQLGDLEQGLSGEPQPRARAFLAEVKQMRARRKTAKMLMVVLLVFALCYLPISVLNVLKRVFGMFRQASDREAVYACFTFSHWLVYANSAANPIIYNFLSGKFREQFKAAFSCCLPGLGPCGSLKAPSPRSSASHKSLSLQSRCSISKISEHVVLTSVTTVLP
T3 sequence (Q932Y6 whole entry, the tested form may be a part): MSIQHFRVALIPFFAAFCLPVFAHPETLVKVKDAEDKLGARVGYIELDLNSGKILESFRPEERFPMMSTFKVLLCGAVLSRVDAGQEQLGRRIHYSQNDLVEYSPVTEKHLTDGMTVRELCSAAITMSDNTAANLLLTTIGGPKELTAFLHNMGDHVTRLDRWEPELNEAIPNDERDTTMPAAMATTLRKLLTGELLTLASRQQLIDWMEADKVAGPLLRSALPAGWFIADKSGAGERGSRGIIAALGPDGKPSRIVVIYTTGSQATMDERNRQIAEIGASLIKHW
High affinity nerve growth factor receptor, sequence (P04629 whole entry, the tested form may be a part): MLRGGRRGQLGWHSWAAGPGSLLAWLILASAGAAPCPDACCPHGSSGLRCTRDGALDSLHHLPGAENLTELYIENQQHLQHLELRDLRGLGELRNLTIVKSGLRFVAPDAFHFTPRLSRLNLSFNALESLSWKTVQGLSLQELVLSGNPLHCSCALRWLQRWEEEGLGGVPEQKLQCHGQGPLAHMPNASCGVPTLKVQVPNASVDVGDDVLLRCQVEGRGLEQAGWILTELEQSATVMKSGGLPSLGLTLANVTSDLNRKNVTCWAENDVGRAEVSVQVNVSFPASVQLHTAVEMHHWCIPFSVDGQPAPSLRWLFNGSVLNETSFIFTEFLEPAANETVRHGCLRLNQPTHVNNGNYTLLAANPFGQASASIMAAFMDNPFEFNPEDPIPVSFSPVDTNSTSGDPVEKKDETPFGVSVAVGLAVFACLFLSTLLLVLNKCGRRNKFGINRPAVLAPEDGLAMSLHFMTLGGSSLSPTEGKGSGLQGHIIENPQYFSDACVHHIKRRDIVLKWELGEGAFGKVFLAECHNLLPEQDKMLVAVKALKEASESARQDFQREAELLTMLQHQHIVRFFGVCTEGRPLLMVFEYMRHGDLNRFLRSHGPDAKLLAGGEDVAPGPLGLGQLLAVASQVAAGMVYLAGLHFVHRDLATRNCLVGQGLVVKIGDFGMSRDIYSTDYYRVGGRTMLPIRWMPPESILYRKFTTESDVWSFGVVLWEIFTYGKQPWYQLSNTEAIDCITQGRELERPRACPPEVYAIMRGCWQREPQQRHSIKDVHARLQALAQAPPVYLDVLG
Aurora kinase B, sequence (Q96GD4 whole entry): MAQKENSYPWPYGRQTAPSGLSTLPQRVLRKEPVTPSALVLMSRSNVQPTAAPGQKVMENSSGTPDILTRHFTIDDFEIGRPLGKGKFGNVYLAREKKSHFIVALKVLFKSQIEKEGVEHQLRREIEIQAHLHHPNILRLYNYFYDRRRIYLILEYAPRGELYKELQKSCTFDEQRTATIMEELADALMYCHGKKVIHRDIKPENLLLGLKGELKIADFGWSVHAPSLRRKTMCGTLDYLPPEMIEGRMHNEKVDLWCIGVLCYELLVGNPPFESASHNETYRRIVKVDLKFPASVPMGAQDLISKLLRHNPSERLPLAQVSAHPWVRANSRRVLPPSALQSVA
Aurora kinase A, sequence (O14965 whole entry): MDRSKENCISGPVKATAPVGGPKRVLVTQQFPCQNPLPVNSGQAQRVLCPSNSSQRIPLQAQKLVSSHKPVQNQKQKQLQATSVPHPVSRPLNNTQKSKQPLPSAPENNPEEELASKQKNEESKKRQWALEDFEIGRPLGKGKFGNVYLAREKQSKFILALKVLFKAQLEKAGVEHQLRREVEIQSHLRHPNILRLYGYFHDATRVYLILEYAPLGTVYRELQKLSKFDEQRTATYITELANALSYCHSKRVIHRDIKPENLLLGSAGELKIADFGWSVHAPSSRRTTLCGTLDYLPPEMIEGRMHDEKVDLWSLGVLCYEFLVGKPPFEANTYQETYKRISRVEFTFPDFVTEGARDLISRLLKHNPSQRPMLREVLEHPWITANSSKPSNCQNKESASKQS
Beta-galactosidase, sequence (Q8VNN2 whole entry): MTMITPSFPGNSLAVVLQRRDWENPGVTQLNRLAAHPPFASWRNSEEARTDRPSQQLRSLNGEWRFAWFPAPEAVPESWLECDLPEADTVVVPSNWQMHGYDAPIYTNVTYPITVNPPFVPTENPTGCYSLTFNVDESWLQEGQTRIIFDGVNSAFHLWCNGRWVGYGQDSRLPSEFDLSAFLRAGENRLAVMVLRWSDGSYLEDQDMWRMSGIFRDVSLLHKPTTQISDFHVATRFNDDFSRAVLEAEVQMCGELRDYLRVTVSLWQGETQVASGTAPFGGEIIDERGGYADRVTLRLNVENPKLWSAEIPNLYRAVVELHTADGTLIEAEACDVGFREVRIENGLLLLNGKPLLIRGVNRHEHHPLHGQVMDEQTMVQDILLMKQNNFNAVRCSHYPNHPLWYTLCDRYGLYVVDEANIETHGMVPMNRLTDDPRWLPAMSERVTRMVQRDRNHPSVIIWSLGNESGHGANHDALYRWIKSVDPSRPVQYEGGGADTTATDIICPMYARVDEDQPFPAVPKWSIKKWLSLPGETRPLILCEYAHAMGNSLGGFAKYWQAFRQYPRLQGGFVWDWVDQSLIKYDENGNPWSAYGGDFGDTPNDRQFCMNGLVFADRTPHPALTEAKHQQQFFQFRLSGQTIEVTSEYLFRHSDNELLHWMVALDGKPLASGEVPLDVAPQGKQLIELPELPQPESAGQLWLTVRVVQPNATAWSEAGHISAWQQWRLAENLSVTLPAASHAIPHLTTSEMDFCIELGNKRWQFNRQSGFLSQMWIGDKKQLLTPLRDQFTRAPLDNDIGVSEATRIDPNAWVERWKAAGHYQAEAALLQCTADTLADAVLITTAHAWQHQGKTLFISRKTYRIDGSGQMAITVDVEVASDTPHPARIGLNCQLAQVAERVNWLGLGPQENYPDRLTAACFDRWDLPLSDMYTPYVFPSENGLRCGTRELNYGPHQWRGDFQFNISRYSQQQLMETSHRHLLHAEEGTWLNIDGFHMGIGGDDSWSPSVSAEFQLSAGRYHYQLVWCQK
Cytochrome P450 2C9, sequence (P11712 whole entry): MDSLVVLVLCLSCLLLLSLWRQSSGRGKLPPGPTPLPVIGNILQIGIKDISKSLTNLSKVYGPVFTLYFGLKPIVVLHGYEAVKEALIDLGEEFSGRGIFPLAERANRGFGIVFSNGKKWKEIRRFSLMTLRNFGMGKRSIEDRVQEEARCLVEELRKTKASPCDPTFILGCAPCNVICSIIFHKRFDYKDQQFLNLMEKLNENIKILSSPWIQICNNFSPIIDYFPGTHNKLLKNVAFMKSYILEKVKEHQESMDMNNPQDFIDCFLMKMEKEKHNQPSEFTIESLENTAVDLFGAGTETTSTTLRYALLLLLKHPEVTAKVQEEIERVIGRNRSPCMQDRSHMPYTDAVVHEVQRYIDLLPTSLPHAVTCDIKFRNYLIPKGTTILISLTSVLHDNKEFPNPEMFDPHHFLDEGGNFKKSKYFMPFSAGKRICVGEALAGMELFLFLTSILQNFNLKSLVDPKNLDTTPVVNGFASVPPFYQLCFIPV

## CCn1c(SCC(=O)c2ccc3ccccc3c2)nnc1-c1cccs1
[1]
  IC50: 17.6 µM (inactive)
Orexin receptor type 2 [2]
  IC50: > 50 µM (inactive)
Cytochrome P450 2C9
  AC50: 17.8 µM (inconclusive)
CHO-K1
  IC50: > 66.2 µM (inactive)
[3]
  IC50: 6.66 µM (active)
Orexin receptor type 2 [4]
  IC50: > 88.8 µM (inactive)
[5]
  IC50: > 49.8 µM (inactive)

## CCS(=O)(=O)c1ccc(-c2ccc(-c3n[nH]c4c3Cc3cc(O)c(OC)cc3-4)cc2)cc1
Aurora kinase A
  Ki: 794 nM (active)
[6]
  Ki: 1.26 µM (active)
Aurora kinase B
  Ki: 0.794 nM (active)
[7]
  Ki: 3.98 µM (active)

## O=C(c1ccccc1)c1ccccc1N1C(=O)C=CC1=O
[8]
  IC50: 1.99 µM (active)
Beta-galactosidase
  IC50: > 66.6 µM (inactive)
[9]
  AC50: 2.21 µM (active)
[10]
  AC50: 16.7 µM (active)
Beta Lactamase [11]
  IC50: 15.3 µM (inactive)
CHO
  IC50: 2.78 µM (active)
Beta Lactamase [12]
  IC50: 15.5 µM (inactive)
[13]
  AC50: 24.6 µM (active)
[14]
  AC50: 12.5 µM (active)
[15]
  IC50: > 66 µM (inactive)
[16]
  IC50: > 66 µM (inactive)
